Measurements as given in publication PMC4579270, “Identification and Characterization of an Irreversible Inhibitor of CDK2” (Chemistry & Biology, 2015).
Read-outs that look alike come from different tables or passages of the source.

What was measured:
Test in all cases: Dundee kinase screen re-test (standard format and 4 hour pre-incubation)
Type in all cases: biochemical
CHK1 = target: T1, CHK1 (Homo sapiens, UniProt O14757); conditions: CHK1, 0.5µM
T1 sequence (O14757 1-476): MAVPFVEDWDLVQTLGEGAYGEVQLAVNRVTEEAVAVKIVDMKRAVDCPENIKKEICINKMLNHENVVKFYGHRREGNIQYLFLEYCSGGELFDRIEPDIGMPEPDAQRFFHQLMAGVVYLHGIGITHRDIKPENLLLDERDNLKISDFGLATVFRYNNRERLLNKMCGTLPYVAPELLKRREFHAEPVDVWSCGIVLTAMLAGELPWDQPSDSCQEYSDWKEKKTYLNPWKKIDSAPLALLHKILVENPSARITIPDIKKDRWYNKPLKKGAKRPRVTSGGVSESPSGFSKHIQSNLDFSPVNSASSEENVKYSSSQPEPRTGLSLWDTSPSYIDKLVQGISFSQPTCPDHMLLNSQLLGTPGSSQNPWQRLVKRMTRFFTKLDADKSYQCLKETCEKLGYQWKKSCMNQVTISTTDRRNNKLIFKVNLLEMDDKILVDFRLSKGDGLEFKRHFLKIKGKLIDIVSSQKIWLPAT
Description: (§1) Prior to determining its cellular activity, we carried out a screen to assess its selectivity against a panel of 131 protein kinases under conditions that would not distinguish between a reversible or irreversible mode of action. […] These 13 kinases and 29 additional kinases, selected for their known sensitivity to other inhibitors within the purine series, were then tested in a modified screening format in which the assay was repeated following a 4-hr pre-incubation (Table S3B). […] However, conformational flexibility around the active site may promote such an interaction with a residue from another part of the structure ([Martin et al., 2012]).
(§2) Table S3, Related to Figure 4. NCL-0006300 protein kinase selectivity. […]
(§3) Dundee protein kinase screen (Bain et al., 2007). […]
(§4) (B) Selected kinases were re-tested in the Dundee kinase screen against NU6300 at a single concentration of 0.5 µM both in the standard assay format and following a 4 hour pre-incubation in the presence of NU6300. Kinases which have very low activity after the 4 hour incubation so that results might not be wholly reliable are boxed in salmon. Kinases where the activity after a 4 hour pre-incubation is < 50% that in the standard assay format are highlighted in red.

PAK4 = PAK4 (Homo sapiens, UniProt O96013); conditions: PAK4, 0.5µM
Sequence of PAK4 (O96013 whole entry): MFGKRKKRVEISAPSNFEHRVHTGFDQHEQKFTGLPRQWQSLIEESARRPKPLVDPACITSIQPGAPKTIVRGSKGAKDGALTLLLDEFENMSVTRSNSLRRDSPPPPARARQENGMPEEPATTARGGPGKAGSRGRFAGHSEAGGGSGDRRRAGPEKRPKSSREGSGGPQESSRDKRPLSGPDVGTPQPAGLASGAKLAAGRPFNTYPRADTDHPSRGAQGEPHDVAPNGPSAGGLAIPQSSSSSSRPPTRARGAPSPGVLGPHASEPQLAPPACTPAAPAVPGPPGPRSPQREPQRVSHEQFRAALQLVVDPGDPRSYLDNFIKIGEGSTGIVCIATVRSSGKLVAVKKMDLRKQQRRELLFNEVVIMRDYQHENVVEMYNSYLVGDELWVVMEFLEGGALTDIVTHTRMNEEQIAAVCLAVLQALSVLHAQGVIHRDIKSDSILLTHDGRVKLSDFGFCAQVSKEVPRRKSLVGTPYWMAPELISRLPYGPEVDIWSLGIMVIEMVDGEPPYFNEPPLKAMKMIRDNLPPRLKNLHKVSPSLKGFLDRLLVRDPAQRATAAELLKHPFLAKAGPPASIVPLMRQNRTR
Description: as §1, §2, §3, §4

JAK2 = JAK2 (Homo sapiens, UniProt O60674); conditions: JAK2, 0.5µM
Sequence of JAK2 (O60674 whole entry): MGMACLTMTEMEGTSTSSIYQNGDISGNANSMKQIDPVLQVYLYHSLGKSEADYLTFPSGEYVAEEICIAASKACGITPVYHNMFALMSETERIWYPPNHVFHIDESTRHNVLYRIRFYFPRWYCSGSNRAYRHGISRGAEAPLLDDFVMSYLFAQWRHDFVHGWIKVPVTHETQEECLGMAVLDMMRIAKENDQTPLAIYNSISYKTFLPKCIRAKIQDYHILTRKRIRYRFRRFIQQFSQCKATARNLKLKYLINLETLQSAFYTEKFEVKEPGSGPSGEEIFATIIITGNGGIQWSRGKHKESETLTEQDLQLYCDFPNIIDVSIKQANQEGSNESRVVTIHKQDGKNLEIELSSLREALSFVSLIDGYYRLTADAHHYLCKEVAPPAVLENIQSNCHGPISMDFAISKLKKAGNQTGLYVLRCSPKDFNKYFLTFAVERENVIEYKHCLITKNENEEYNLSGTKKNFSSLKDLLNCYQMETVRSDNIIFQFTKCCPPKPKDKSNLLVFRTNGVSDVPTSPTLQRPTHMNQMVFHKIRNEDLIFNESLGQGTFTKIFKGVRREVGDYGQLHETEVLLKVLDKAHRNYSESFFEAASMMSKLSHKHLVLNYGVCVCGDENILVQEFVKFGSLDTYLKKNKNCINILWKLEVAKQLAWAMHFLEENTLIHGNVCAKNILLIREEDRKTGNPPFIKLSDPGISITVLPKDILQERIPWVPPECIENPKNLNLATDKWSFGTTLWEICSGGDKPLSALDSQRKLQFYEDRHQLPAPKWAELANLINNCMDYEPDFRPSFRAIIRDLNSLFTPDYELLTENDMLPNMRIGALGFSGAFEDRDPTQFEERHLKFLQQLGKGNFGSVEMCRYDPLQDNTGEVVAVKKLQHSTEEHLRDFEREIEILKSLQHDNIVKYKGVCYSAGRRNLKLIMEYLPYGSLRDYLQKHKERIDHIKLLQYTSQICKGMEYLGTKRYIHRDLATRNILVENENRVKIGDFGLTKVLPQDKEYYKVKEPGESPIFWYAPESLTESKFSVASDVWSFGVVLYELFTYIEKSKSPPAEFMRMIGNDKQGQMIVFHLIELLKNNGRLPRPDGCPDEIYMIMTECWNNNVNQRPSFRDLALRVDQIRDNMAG
Description: as §1, §2, §3, §4

ERK8 = target: T2, ERK8 (Homo sapiens, UniProt Q8TD08); conditions: ERK8, 0.5µM
T2 sequence (Q8TD08 1-544): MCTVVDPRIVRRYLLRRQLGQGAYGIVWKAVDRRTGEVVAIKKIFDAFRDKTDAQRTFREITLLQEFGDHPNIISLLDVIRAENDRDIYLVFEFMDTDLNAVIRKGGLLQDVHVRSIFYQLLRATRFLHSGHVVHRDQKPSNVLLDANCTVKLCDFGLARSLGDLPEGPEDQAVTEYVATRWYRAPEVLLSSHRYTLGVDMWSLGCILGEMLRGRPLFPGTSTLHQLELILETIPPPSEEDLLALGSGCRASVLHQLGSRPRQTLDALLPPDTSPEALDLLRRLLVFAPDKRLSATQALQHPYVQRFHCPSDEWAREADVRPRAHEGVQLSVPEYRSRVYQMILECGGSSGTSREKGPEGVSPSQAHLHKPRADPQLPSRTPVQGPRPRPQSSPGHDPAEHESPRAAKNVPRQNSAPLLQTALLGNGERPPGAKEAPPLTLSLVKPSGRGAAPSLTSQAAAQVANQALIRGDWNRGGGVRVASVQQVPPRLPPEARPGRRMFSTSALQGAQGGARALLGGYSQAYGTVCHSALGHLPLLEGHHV
Description: as §1, §2, §3, §4

PDK1 = target: T3, PDK1 (Homo sapiens, UniProt O15530); conditions: PDK1, 0.5µM
T3 sequence (O15530 1-556): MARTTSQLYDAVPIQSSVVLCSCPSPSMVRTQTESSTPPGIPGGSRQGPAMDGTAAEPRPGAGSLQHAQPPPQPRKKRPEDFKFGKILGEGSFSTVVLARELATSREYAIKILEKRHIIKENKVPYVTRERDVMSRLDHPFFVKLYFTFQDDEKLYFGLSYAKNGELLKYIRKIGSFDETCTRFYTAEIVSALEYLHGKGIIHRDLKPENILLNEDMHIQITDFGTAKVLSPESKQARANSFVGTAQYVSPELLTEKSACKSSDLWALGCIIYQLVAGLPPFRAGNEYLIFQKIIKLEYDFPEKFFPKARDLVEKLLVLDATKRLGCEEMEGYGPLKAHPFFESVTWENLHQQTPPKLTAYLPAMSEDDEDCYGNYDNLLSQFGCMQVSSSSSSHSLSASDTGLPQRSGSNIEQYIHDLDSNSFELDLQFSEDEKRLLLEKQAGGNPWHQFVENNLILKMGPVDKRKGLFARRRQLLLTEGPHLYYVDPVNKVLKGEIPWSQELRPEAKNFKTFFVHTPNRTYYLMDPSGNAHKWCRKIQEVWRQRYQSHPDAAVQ
Description: as §1, §2, §3, §4

MST4 = MST4 (Homo sapiens, UniProt Q9P289); conditions: MST4, 0.5µM
Sequence of MST4 (Q9P289 whole entry): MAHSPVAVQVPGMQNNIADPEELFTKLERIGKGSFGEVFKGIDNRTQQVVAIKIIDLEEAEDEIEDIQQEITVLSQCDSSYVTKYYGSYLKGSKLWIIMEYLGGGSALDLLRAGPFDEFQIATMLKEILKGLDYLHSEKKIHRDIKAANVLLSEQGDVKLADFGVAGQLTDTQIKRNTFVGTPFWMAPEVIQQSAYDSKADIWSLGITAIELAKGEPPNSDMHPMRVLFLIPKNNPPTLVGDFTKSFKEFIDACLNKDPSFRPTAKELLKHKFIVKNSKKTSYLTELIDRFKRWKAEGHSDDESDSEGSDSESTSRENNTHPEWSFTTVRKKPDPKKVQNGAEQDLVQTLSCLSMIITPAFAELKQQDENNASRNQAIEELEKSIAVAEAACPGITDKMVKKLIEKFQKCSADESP
Description: as §1, §2, §3, §4

[1] = 4hr RT preincubation, read-out: %Remaining activity at 0.5µM NU6300 - 4hr RT preincubation
[2] = usual format, read-out: %Remaining activity at 0.5µM NU6300 - Usual assay format

For `C=CS(=O)(=O)c1ccc(Nc2nc(OCC3CCCCC3)c3nc[nH]c3n2)cc1` [NU6300, 6-(cyclohexylmethoxy)-N-(4-(vinylsulfonyl)phenyl)-9H-purin-2-amine], the remaining activity at 0.5 µM (CHK1; [1]) was 42%, the remaining activity at 0.5 µM (CHK1; [2]) was 72% and the remaining activity at 0.5 µM (PAK4; [1]) was 82%. It also gave a remaining activity at 0.5 µM (PAK4; [2]) of 34%, a remaining activity at 0.5 µM (JAK2; [1]) of 7% and a remaining activity at 0.5 µM (JAK2; [2]) of 9%. The remaining activity at 0.5 µM (ERK8; [1]) was 68%, the remaining activity at 0.5 µM (ERK8; [2]) was 20% and the remaining activity at 0.5 µM (PDK1; [1]) was 40%. It also gave a remaining activity at 0.5 µM (PDK1; [2]) of 29%, a remaining activity at 0.5 µM (MST4; [1]) of 94% and a remaining activity at 0.5 µM (MST4; [2]) of 74%.
